Legend:
[1] = system: HCT-116; assay: In vitro cytotoxic activity, SRB assay; type: cell-based; conditions: Homo sapiens; HCT-116, 48h
Protocol: (§1) In addition, compounds (12a, 12b, 12c, 16b, 16c and 17b) were evaluated against a third cell line (HepG-2) These first two cell lines were selected based on the sensitivity of the previously NCI-tested derivatives towards them amongst the 60 NCI panel. The growth inhibition is expressed as the median growth inhibitory concentration (IC50) which corresponds to the concentration required for 50% inhibition of cell viability and are provided in (Table S6 in supplementary material).
(§2) 5,000 cells in fresh medium were seeded in 96-well microlitre plates and left to attach for 24h. Cells were incubated with the tested compounds at concentration range from 0,1,2.5,5,10 µg/ml and incubation was continued for48h. After 48h treatment,the cells were fixed with 50µl cold 50% trichloroacetic acid (TCA )for 1h at 4 °C. Wells were then washed 5 times with water and stained for 30 min at room temperature with 50µl of 0.4%SRB dissolved in 1% acetic acid. The wells were then washed 4 times with 1% acetic acid. The plates were air dried and the dye was solubilized with 100µl/well of 10mM tris base (pH 10.5) for 5min on a shaker (Orbital Shaker OS 20,Boeco,Germany) at 1600 rpm. The optical density (O.D.)of each well was measured spectrophotometrically at 564 nm with an enzyme linked immunosorbent assay( ELIZA) micraplate reader (Tecan Sunrise,Austria).The mean back ground absorbance was subtracted automatically and mean values for each drug concentration was calculated.
(§3) The percentage of cell survival was calculated as follows:
(§4) Survival fraction =O.D.(treated cells)/O.D.(control cells)
(§5) The IC50 value (the concentration required to produce 50% inhibition of cell growth) was calculated using sigmodial dose response curve-fitting models (GraphPad,Prizm software incorporated). Each concentration was repeated 3 times.

[2] = system: MCF-7; assay: In vitro cytotoxic activity, SRB assay; type: cell-based; conditions: Homo sapiens, MCF7; MCF-7, 48h
Protocol: as §1, §2, §3, §4, §5

[3] = target: T1, VEGFR-2 tyrosine kinase (Homo sapiens, UniProt P35968); assay: In vitro VEGFR-2 tyrosine kinase assay (BPS Bioscience); type: biochemical; conditions: for inhibition at 10 µM: read-out: VEGFR-2 % inhibition, 10 μM concentration
T1 construct: purchased BPS Bioscience 40301
Protocol: The VEGFR tyrosine kinase assays were performed at BPS Bioscience (www.bpsbioscience.com). All the synthesised compounds representing the six series were evaluated for their ability to inhibit VEGFR-2 tyrosine kinase at single dose of 10 µM.
The VEGFR tyrosine kinase activity at single dose concentration of 10 μM was carried out by BPS Bioscience (www.bpsbioscience.com). VEGFR (BPS#40301) served as the enzyme source and Poly (Glu, Tyr) sodium salt, (4:1, Glu:Tyr) (Sigma#P7244) served as the standardized substrate & Kinase-Glo Plus Luminescence kinase assay kit (Promega#V3772). The IC50 determination was carried out where quality control testing is routinely performed on each of the targets to insure compliance to acceptable standards. ^33P-ATP was purchased from Perkin Elmer and ADP-Glo^TM was purchased from Promega. All other materials were of standard laboratory grade.
The VEGFR tyrosine kinase activity was performed using Kinase-Glo Plus luminescence kinase assay kit (Promega). It measures kinase activity by quantitating the amount of ATP remaining in solution following a kinase reaction. The luminescent signal from the assay is correlated with the amount of ATP present and is inversely correlated with the amount of kinase activity. The compounds were diluted to 100 μM in 10% DMSO and […] of the dilution was added to a […] reaction so that the final concentration of DMSO is 1% in all of reactions. All of the enzymatic reactions were conducted at 30 °C for 40 min. The 50 μl reaction mixture contains […], pH 7.4, […], 0.1 mg/ml BSA, 0.2 mg/ml Poly (Glu, Tyr) substrate, 10 μM ATP and VEGFR. After the enzymatic reaction, […] of Kinase-GloPlus Luminescence kinase assay solution (Promega) was added to each reaction and incubate the plate for 5 min at room temperature. Luminescence signal was measured using a BioTek Synergy 2 microplate reader. The protein kinase assays used to determine IC50 value were performed using ADP-GloTM assay kit from Promega which measures the generation of ADP by the protein kinase. Generation of ADP by the protein kinase reaction leads to an increase in luminescence signal in the presence of ADP-GloTM assay kit. The assay was started by incubating the reaction mixture in a 96-well plate at 30 °C for 30 min. After the 30 min incubation period, the assay was terminated by the addition of […] of ADP-GloTM Reagent (Promega). The 96 well plate was shaken and then incubated for 40 min at ambient temperature. […] of Kinase detection reagent was added, the 96-well reaction plate was then read using the ADP-Glo Luminescences Protocol on a GloMax plate reader (Promega: Catalog #E7031). Blank control was set up that included all the assay components except the addition of appropriate substrate (replace with equal volume of kinase assay buffer). The corrected activity for each protein kinase target was determined by removing the blank control value.
VEGFR activity assays were performed in duplicate at each concentration. The luminescence data were analyzed using the computer software, Graphpad Prism. The difference between luminescence intensities in the absence of VEGFR (Lut) and in the presence of VEGFR (Luc) was defined as 100% activity (Lut - Luc). […] IC50 determination for inhibitor against VEGFR was estimated by generating a graph of log inhibitor vs normalized response with variable using the Prism software.

[4] = system: HepG-2; assay: In vitro cytotoxic activity, SRB assay; type: cell-based; conditions: Homo sapiens, HepG2; HepG-2, 48h
Protocol: as §1, §2, §3, §4, §5

T1 sequence (P35968 20-1356): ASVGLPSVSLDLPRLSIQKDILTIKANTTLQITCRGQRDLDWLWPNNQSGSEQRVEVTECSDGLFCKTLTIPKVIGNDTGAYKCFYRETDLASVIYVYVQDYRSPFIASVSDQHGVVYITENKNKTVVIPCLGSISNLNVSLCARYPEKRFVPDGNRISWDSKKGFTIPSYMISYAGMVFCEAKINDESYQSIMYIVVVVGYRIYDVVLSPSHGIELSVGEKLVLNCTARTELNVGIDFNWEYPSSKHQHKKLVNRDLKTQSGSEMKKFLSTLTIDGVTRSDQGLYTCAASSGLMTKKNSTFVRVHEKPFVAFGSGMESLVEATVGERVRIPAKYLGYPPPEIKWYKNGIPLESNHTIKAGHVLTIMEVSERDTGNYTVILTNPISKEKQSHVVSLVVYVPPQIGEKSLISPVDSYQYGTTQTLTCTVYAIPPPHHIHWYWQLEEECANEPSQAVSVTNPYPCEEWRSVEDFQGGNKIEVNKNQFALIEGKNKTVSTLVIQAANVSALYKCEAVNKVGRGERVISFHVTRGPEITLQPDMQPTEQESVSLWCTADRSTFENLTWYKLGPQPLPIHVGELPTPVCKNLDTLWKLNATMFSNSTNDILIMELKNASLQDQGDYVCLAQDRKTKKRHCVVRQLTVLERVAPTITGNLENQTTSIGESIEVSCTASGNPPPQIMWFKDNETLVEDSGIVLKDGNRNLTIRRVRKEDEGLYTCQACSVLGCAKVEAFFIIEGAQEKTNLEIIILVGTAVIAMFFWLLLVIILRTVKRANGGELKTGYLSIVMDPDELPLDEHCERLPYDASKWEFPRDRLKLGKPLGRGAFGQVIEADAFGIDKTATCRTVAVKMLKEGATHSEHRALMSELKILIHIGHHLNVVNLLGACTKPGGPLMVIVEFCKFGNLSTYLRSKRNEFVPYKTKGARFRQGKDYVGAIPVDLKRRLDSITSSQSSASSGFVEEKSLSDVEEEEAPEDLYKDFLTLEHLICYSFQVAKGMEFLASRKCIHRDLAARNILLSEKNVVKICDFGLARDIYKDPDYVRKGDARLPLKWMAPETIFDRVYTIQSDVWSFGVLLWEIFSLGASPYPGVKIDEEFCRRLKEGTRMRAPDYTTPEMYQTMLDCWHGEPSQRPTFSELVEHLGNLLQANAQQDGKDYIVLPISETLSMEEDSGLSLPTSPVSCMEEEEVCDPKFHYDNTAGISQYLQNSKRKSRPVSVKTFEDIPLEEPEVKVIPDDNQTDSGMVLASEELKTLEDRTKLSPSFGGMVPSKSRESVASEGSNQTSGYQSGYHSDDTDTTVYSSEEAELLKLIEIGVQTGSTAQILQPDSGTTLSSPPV

Row | SMILES | IC50 [1] | IC50 [2] | melting point | inhibition at 10 µM [3] | IC50 ([3]; 10 μM ATP/0.2 mg/ml poly-Glu-Tyr) | IC50 [4]
1 | O=C(Nc1ccc(Nc2nncc3ccccc23)cc1)c1ccccc1 [Compound 5a, N-(4-(Phthalazin-1-ylamino)phenyl)benzamide] | 977 µM | > 1000 µM | 142 to 144 °C | 4% |  | 
2 | Cc1nnc(Nc2ccc(NC(=O)c3ccccc3)cc2)c2ccccc12 [Compound 5c, N-(4–(4-Methylphthalazin-1-ylamino)phenyl)benzamide] | 15 µM | 22.9 µM | 283 to 285 °C | 12% |  | 
3 | O=C(Nc1ccccc1)Nc1ccc(Nc2nncc3ccccc23)cc1 [Compound 6a, 1-Phenyl-3–(4-(phthalazin-1-ylamino)phenyl)urea] | 91.2 µM | 67.6 µM | 145 to 147 °C | 13% |  | 
4 | O=C(Nc1ccc(Nc2nncc3ccccc23)cc1)Nc1ccc(Cl)c(C(F)(F)F)c1 [Compound 6c, 1–(4-Chloro-3-(trifluoromethyl)phenyl)-3–(4-(phthalazin-1-ylamino)phenyl)urea] | 6 µM | 6.2 µM | 288 to 291 °C | 70% | 13.4 µM | 
5 | Cc1nnc(Nc2ccc(NC(=O)Nc3ccccc3)cc2)c2ccccc12 [Compound 6d, 1–(4-(4-Metyhlphthalazin-1-ylamino)phenyl)3-phenylurea] | 57.5 µM | 67.6 µM | 284 to 286 °C | 15% |  | 
6 | Cc1nnc(Nc2ccc(NC(=O)Nc3ccc(Cl)c(C(F)(F)F)c3)cc2)c2ccccc12 [Compound 6f, 1–(4-Chloro-3-(trifluoromethyl)phenyl)-3–(4-(4-methylphthalazin-1-ylamino)phenyl)-urea] | 3.1 µM | 3.2 µM | 258 to 260 °C | 32% |  | 
7 | O=C(Nc1ccccc1)Nc1ccc(Oc2nncc3ccccc23)cc1 [Compound 7a, 1-Phenyl-3–(4-(phthalazin-1-yloxy)phenyl)urea] |  |  | 180 to 182 °C | 5% |  | 
8 | O=C(Nc1ccc(Oc2nncc3ccccc23)cc1)Nc1ccc(Cl)c(C(F)(F)F)c1 [Compound 7c, 1–(4-Chloro-3-(trifluoromethyl)phenyl)-3–(4-(phthalazin-1-yloxy)phenyl)urea] | 2.6 µM | 2.5 µM | 158 to 160 °C | 47% |  | 
9 | Cc1nnc(Oc2ccc(NC(=O)Nc3ccccc3)cc2)c2ccccc12 [Compound 7d] | 7.2 µM | 7.8 µM | 174 to 176 °C | 10% |  | 
10 | Cc1nnc(Oc2ccc(NC(=O)Nc3ccc(Cl)c(C(F)(F)F)c3)cc2)c2ccccc12 [Compound 7f, 1–(4-Chloro-3-(trifluoromethyl)phenyl)-3–(4-(4-metyhlphthalazin-1-yloxy)phenyl)urea] | 49 µM | 31 µM | 150 to 152 °C | 21% |  | 
11 | c1ccc(N2CCN(c3nncc4ccccc34)CC2)cc1 [Compound 8b, 1–(4-Phenylpiperazin-1-yl)phthalazine] | 550 µM | 363 µM | 242 to 244 °C | 8% |  | 
12 | Fc1ccccc1N1CCN(c2nncc3ccccc23)CC1 [Compound 8c, 1–(4-(2-Fluorophenyl)piperazin-1-yl)phthalazine] | 42.7 µM | 32.4 µM | 88 to 90 °C | 9% |  | 
13 | O=C(c1ccco1)N1CCN(c2nncc3ccccc23)CC1 [Compound 8e, Furan-2-yl-(4-(phthalazin-1-yl)piperazin-1-yl)methanone] | 513 µM | 190 µM | 90 to 92 °C | 9% |  | 
14 | Cc1nnc(N2CCN(C(=O)c3ccco3)CC2)c2ccccc12 [Compound 8j, Furan-2-yl-(4–(4-methylphthalazin-1-yl)piperazin-1-yl)methanone] | 479 µM | 479 µM | 90 to 92 °C | 10% |  | 
15 | O=C(Nc1ccccc1)Nc1ccc(Nc2nnc(Cl)c3ccccc23)cc1 [Compound 12a, 1–(4-(4Chlorophthalazin-1-ylamino)phenyl)-3-phenylurea] | 479 µM | 81.3 µM | 225 to 227 °C | 26% |  | > 1000 µM
16 | Clc1ccc(Nc2nnc(CNc3cccc(Cl)c3)c3ccccc23)cc1 [Compound 16b, N-(4-Chlorophenyl)-4-((3-chlorophenylamino)methyl)phthalazin-1-amine] | 28.8 µM | 91 µM | 164 to 166 °C | 21% |  | 77.6 µM
17 | Cc1cccc(NCc2nnc(Nc3ccc(Cl)cc3)c3ccccc23)c1 [Compound 16c, N-(4-Chlorophenyl)-4-((m-tolylamino)methyl)phthalazin-1-amine] | 257 µM | > 1000 µM | 130 to 132 °C | 19% |  | > 1000 µM
18 | Cc1cccc(OCc2nnc(Nc3ccc(Cl)cc3)c3ccccc23)c1 [Compound 17b, N-(4-Chlorophenyl)-4-(m-tolyloxymethyl)phthalazin-1-amine] | 38 µM | 13.5 µM | 193 to 195 °C | 15% |  | 39 µM
19 | COc1cccc2c1C(=O)c1c(O)c3c(c(O)c1C2=O)C[C@@](O)(C(=O)CO)C[C@@H]3O[C@H]1C[C@H](N)[C@H](O)[C@H](C)O1 [Dox, doxorubicin, reference compound] | 0.62 µM | 0.9 µM |  |  |  | 0.5 µM
